Consider seven compounds from US10173971B2, “Picolinamides with fungicidal activity” (DOW AGROSCIENCES LLC, priority 2014, dated 2019).

Where two headings read alike, the source gives them in different places.

One assay deals with Zymoseptoria tritici. The assay is described as follows: Fungicidal activity: leaf blotch of wheat (SEPTTR), wheat seedlings, booth sprayer to run-off or track spray. In kind it is in vivo. Particulars: for pest or weed control at 100 ppm: High-Volume Cereal Activity at 100 ppm; for pest or weed control at 121.5 g/ha: Low-Volume Cereal Activity at 121.5 g/H.
A further assay concerns Puccinia triticina. As to the kind of experiment: Fungicidal activity: wheat brown rust (PUCCRT), wheat seedlings, booth sprayer to run-off or track spray. In kind it is in vivo. Particulars: for pest or weed control at 100 ppm: High-Volume Cereal Activity at 100 ppm; for pest or weed control at 121.5 g/ha: Low-Volume Cereal Activity at 121.5 g/H.
In another assay the test system is Phakopsora pachyrhizi. The assay is described as follows: Fungicidal activity: Asian soybean rust (PHAKPA), soybean seedlings. As to conditions: 25 ppm, soybean plants (variety Williams 82); for Disease Control PHAKPA 1DP: 1 Day Protectant; for Disease Control PHAKPA 3DC: 3 Day Curative.
Setting [1] is: 24 h, 1 Day Protectant, read-out: SEPTTR 1DP.
Where [2] appears, read: 72 h, 3 Day Curative, read-out: SEPTTR 3DC.
Where [3] appears, read: 24 h, 1 Day Protectant, read-out: PUCCRT 1DP.
[4] abbreviates: 72 h, 3 Day Curative, read-out: PUCCRT 3DC.
The mark [5] stands for this setting: 3DC (Day Curative), read-out: PUCCRT 3DC.

With `CCCO[C@H](CC)[C@@H](Cc1ccccc1)[C@H](C)OC(=O)[C@H](C)NC(=O)c1nccc(OC)c1OCOC(C)=O` [compound 169], the pest or weed control at 100 ppm in the assay on Zymoseptoria tritici (setting [1]) was in the range of 80 to 100%; in the assay on Zymoseptoria tritici (3DC (Day Curative), read-out: SEPTTR 3DC) it was 80 to 100%; in the assay on Puccinia triticina (setting [3]), 80 to 100%; in the assay on Puccinia triticina (setting [5]), 80 to 100%. Moreover, the pest or weed control at 121.5 g/ha in the assay on Zymoseptoria tritici (setting [1]), in the assay on Zymoseptoria tritici (setting [2]), with Puccinia triticina (setting [3]) and in the assay on Puccinia triticina (setting [4]) was 80 to 100% each time. The “Disease Control PHAKPA 1DP” value in the assay with Phakopsora pachyrhizi is given as “A (80-100)”. For the same compound, in the assay with Phakopsora pachyrhizi, the “Disease Control PHAKPA 3DC” value is on record as “B (More than 0-Less than 80)”.
In the case of `COc1ccnc(C(=O)N[C@@H](C)C(=O)O[C@@H](C)[C@@H](COCc2ccccc2)Cc2ccccc2)c1OCOC(C)=O` [compound 240], the pest or weed control at 121.5 g/ha was 0 to 80% in the assay with Zymoseptoria tritici (setting [1]), 80 to 100% with Zymoseptoria tritici (setting [2]), 80 to 100% with Puccinia triticina (setting [3]) and 80 to 100% with Puccinia triticina (setting [4]). In addition, the “Disease Control PHAKPA 1DP” value in the assay with Phakopsora pachyrhizi is “A (80-100)”. Also, the “Disease Control PHAKPA 3DC” value in the assay on Phakopsora pachyrhizi is given as “B (More than 0-Less than 80)”.
Take `COc1ccnc(C(=O)N[C@@H](C)C(=O)O[C@@H](C)[C@H](Cc2ccccc2)C(C)(C)OCc2ccccc2)c1OCOC(C)=O` [compound 242]: the pest or weed control at 121.5 g/ha in the assay on Zymoseptoria tritici (setting [1]), with Zymoseptoria tritici (setting [2]), in the assay on Puccinia triticina (setting [3]) and in the assay with Puccinia triticina (setting [4]) was 80 to 100% each time. Moreover, the “Disease Control PHAKPA 1DP” value in the assay on Phakopsora pachyrhizi is given as “B (More than 0-Less than 80)”.
For `COc1ccc(C[C@H](COCC2CC2)[C@H](C)OC(=O)[C@H](C)NC(=O)c2nccc(OC)c2OCOC(C)=O)cc1Cc1ccccc1` [compound 281], the pest or weed control at 121.5 g/ha with Zymoseptoria tritici (setting [1]) lay in the range of 0 to 80%; with Zymoseptoria tritici (setting [2]), 80 to 100%; in the assay on Puccinia triticina (setting [3]), 80 to 100%; with Puccinia triticina (setting [4]), 0 to 80%.
For the compound `COc1ccc(C[C@H](COc2ccc(F)cc2F)[C@H](C)OC(=O)[C@H](C)NC(=O)c2nccc(OC)c2OCOC(C)=O)cc1` [compound 282], the results for the pest or weed control at 121.5 g/ha in the assay on Zymoseptoria tritici (setting [1]), in the assay with Zymoseptoria tritici (setting [2]) and in the assay on Puccinia triticina (setting [3]) were 0 to 80%, 0 to 80% and 80 to 100%, respectively.
For `CC[C@@H](c1ccccc1)[C@H](C)OC(=O)[C@H](C)NC(=O)c1nccc(OC)c1OC(C)=O` [compound 283], the pest or weed control at 121.5 g/ha with Zymoseptoria tritici (setting [1]) was in the range of 0 to 80%; in the assay on Zymoseptoria tritici (setting [2]) it was 80 to 100%; with Puccinia triticina (setting [3]), 80 to 100%; in the assay with Puccinia triticina (setting [4]), 80 to 100%.
Turning to `CC[C@H](Cc1ccc(C(F)(F)F)cc1)[C@@H](Cc1ccc(F)cc1)[C@H](C)OC(=O)[C@H](C)NC(=O)c1nccc(OC)c1O` [compound 284], the pest or weed control at 100 ppm in the assay on Zymoseptoria tritici (setting [1]) lay within 0 to 80%; in the assay on Puccinia triticina (setting [3]), 80 to 100%; in the assay on Puccinia triticina (setting [5]), 80 to 100%.
